Test results reported in US20050003449A1, “Method for determining molecular affinities for human serum albumin” (priority 2003, published 2005).
pKd: −log10 of the molar value.

Legend:
[1] = biological target: T1, HSA (V) (Homo sapiens, UniProt P02768); assay: Isothermal titration calorimetry of the probe with HSA; format: binding; details: ITC, PBS
T1 construct: Human serum albumin, fraction V, with a purity ≧95% as indicated by cellulose acetate electrophoresis; purchased Calbiochem 12666
Method: The bottom plot represents the isothermal titrating calorimetry results integrated enthalpies and least-squares curve fit for the probe interaction with HSA (V) in PBS.
Isothermal titration calorimetry experiments were performed using an OMEGA titrating microcalorimeter from Microcal, Inc. (Northampton, Mass.). Data collection, analysis, and plotting were performed using a Windows-based software package (Origin 5.0) supplied by the instrument vendor. The titrating microcalorimeter consisted of a sample and reference cell held in an adiabatic enclosure. The calorimeter was calibrated by comparing the measured areas of applied heat pulses to known values. Known and experimentally measured values agreed to within 2%.
The probe was prepared in DMSO at 10 mM and diluted to 500 μM in PBS. the probe and HSA solutions were degassed prior to analysis. The reference cell was filled with PBS. A 20 μM solution of HSA in PBS was placed in the 1.37 mL sample cell and the probe (0.5 mM) was held in a 250 μL syringe. Thirty injections (6 μL each) of the probe were made by a computer-controlled stepper motor into the sample cell filled with HSA held at 37° C. The syringe stir rate was 400 rpm. The heat adsorbed or released with each injection was measured by a thermoelectric device connected to a Microcal nanovolt preamplifier. Titration isotherms for the binding interactions were comprised of the differential heat flow for each injection. Heats of dilution obtained by injecting ligand into dialysate buffer were minor but were subtracted prior to fitting the data. Isotherms fit well to a single site model (Wiseman, T., et. al. Anal. Biochem (1989) 179, 131-137) using an iterative nonlinear least-squares algorithm included with the instrument.
All parameters were floated during the iterations until a minimum %^2 was obtained between experimental and fit data. […] The change in free energy (ΔG) and change in entropy (ΔS) were determined using the Gibbs' free energy equation. […]

[2] = biological target: HSA (fraction V) (Homo sapiens, UniProt P02768); assay: biochemical

enthalpy change for the interaction [1]: -10.4 kcal/M
pKd ([1]; read-out: average affinity for all binding interactions): 4.82
molecules of the probe bound per HSA (stoichiometry) ([1]; single-site model): approximately 2
pKd [2]: 6.41
Compound: Cn1c(/C=C/c2ccc(C#N)cc2C(=O)O)cc2ccccc21 [the probe, 5-cyano-2-[(E)-2-(1-methyl-1H-indol-2-yl)ethenyl]benzoic acid]
